Results: the supplement of paper PMC10307832

Legend:
Test in all cases: relative viability (nuclei count vs DMSO), 5 days (fraction); higher = more cells survive
Temozolomide + Lapatinib = compound: Cn1nnc2c(C(N)=O)ncn2c1=O [Temozolomide] + CS(=O)(=O)CCNCc1ccc(-c2ccc3ncnc(Nc4ccc(OCc5cccc(F)c5)c(Cl)c4)c3c2)o1 [Lapatinib] (partner 2 µM)
How it was run: (§1)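 Relative viability divides the nuclei count in treated wells by that in vehicle wells. Lung cancer cell lines were seeded in 1536-well plates, dosed by pin tool the next day, and fixed and stained after 5 days in one step with final 0.05% Triton X-100, 1% formaldehyde and 1 ug/ml Hoechst. Dosing was a single drug or a fixed anchor-drug dose plus five library-drug doses (not always all listed) in √10 steps, and values are medians of duplicate plates imaged at 4×.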

AZD5582 + Tozasertib = compound: C[C@@H](C(=O)N[C@@H](C1CCCCC1)C(=O)N2CCC[C@H]2C(=O)N[C@@H]3[C@@H](CC4=CC=CC=C34)OCC#CC#CCO[C@@H]5CC6=CC=CC=C6[C@@H]5NC(=O)[C@@H]7CCCN7C(=O)[C@H](C8CCCCC8)NC(=O)[C@H](C)NC)NC [AZD5582] + Cc1cc(Nc2cc(N3CCN(C)CC3)nc(Sc3ccc(NC(=O)C4CC4)cc3)n2)n[nH]1 [Tozasertib] (partner 0.1 µM)
How it was run: as §1

[1] = compound: Cn1nnc2c(C(N)=O)ncn2c1=O [Temozolomide] + CC(C)C[C@H](NC(=O)[C@H](Cc1ccccc1)NC(=O)c1cnccn1)B(O)O [Bortezomib] (partner 0.002 µM)
How it was run: as §1

AZD5582 + Phenformin = compound: C[C@@H](C(=O)N[C@@H](C1CCCCC1)C(=O)N2CCC[C@H]2C(=O)N[C@@H]3[C@@H](CC4=CC=CC=C34)OCC#CC#CCO[C@@H]5CC6=CC=CC=C6[C@@H]5NC(=O)[C@@H]7CCCN7C(=O)[C@H](C8CCCCC8)NC(=O)[C@H](C)NC)NC [AZD5582] + N=C(N)NC(=N)NCCc1ccccc1 [Phenformin] (partner 250 µM)
How it was run: as §1

Cell Line	relative viability (Temozolomide + Lapatinib; first compound 0.2 µM)	relative viability (Temozolomide + Lapatinib; first compound 0.6325 µM)	relative viability (Temozolomide + Lapatinib; first compound 2 µM)	relative viability (Temozolomide + Lapatinib; first compound 6.325 µM)	relative viability (Temozolomide + Lapatinib; first compound 20 µM)	relative viability (AZD5582 + Tozasertib; first compound 0.001581 µM)	relative viability (AZD5582 + Tozasertib; first compound 0.005 µM)	relative viability (AZD5582 + Tozasertib; first compound 0.01581 µM)	relative viability (AZD5582 + Tozasertib; first compound 0.05 µM)	relative viability ([1]; first compound 0.2 µM)	relative viability ([1]; first compound 0.6325 µM)	relative viability ([1]; first compound 2 µM)	relative viability ([1]; first compound 6.325 µM)	relative viability ([1]; first compound 20 µM)	relative viability (AZD5582 + Phenformin; first compound 0.001581 µM)	relative viability (AZD5582 + Phenformin; first compound 0.005 µM)	relative viability (AZD5582 + Phenformin; first compound 0.01581 µM)	relative viability (AZD5582 + Phenformin; first compound 0.05 µM)
LU99A	1.13	1.03	0.977	0.87	0.966	0.252	0.349	0.289	0.279	1.28	1.17	1.07	1.06	1.01	0.785	0.927	0.819	0.997
LXF-289	0.939	0.934	0.919	0.847	0.861	0.195	0.192	0.18	0.191	1.01	1.03	1.05	0.928	0.934	0.484	0.488	0.409	0.486
NCI-H23	1.22	1.04	1.15	0.969	0.912	0.304	0.278	0.328	0.347	1.46	1.19	0.993	0.968	0.993	0.66	0.611	0.518	0.425
NCI-H322M	–	0.568	0.574	0.599	0.535	0.499	0.579	–	0.523	–	1.25	1.19	1.2	0.962	0.776	0.996	–	0.872
NCI-H460	1.23	1.03	1.12	1	1.24	0.0814	0.495	0.509	0.521	1.29	1.11	1.02	1.24	1.14	0.485	0.524	0.487	0.611
NCI-H520	0.927	0.87	1	0.903	0.993	0.441	0.394	0.544	0.51	0.733	0.688	0.768	0.636	0.548	0.451	0.539	0.528	0.53
NCI-H596	1.3	1.11	1.26	0.929	1.2	–	–	0.943	0.338	1.04	1.02	0.97	0.908	1.07	–	–	0.764	0.217
NCI-H647	1.41	1.16	1.27	0.891	0.275	0.269	0.347	0.255	0.357	1.21	0.902	0.836	0.792	0.283	0.47	0.504	0.456	0.459
NCI-H650	1.02	0.888	0.995	1.03	1.07	0.648	0.876	0.722	0.628	1.18	1.08	0.787	0.807	0.941	0.417	0.401	0.342	0.385
NCI-H661	–	0.599	0.506	0.433	0.508	0.361	0.368	0.389	0.358	–	0.889	0.887	0.844	0.864	0.268	0.271	0.269	0.267
NCI-H727	0.907	0.804	0.865	0.665	0.693	0.651	0.732	0.58	0.78	0.884	0.903	1.09	0.768	0.803	0.518	1.28	0.632	0.673
NCI-H838	0.998	1.03	1.17	0.945	1.25	0.265	0.307	–	0.292	0.829	0.929	1.1	0.847	0.832	0.551	0.703	–	0.594
NCI-H1355	1.06	1.01	0.974	1.02	0.99	0.488	0.558	0.52	0.6	1.34	1.2	1.2	1.09	1.14	0.416	0.426	0.381	0.387
NCI-H1437	0.8	0.817	0.822	0.875	0.975	0.373	0.385	0.399	0.358	0.453	0.42	0.648	0.409	0.452	0.251	0.279	0.254	0.365
NCI-H1650	0.991	0.925	0.783	0.662	0.743	0.358	0.326	0.389	0.304	0.199	0.175	0.205	0.167	0.196	0.461	0.492	0.342	0.394
NCI-H1651	0.969	0.881	0.876	0.754	0.934	0.727	0.845	–	0.918	1.01	0.975	0.989	0.915	0.898	0.353	0.339	–	0.435
NCI-H1666	0.626	0.706	0.486	0.495	0.536	0.539	0.682	0.638	0.678	0.779	0.9	0.595	0.647	0.416	0.532	0.544	0.557	0.609
NCI-H1734	1.12	1.06	1.07	0.955	1.05	0.255	0.263	0.257	0.313	1.07	0.871	0.963	0.771	0.949	0.418	0.516	0.37	0.455

Cell Line	relative viability (Temozolomide + Lapatinib; first compound 0.2 µM)	relative viability (Temozolomide + Lapatinib; first compound 0.6325 µM)	relative viability (Temozolomide + Lapatinib; first compound 2 µM)	relative viability (Temozolomide + Lapatinib; first compound 6.325 µM)	relative viability (Temozolomide + Lapatinib; first compound 20 µM)	relative viability (AZD5582 + Tozasertib; first compound 0.001581 µM)	relative viability (AZD5582 + Tozasertib; first compound 0.005 µM)	relative viability (AZD5582 + Tozasertib; first compound 0.01581 µM)	relative viability (AZD5582 + Tozasertib; first compound 0.05 µM)	relative viability ([1]; first compound 0.2 µM)	relative viability ([1]; first compound 0.6325 µM)	relative viability ([1]; first compound 2 µM)	relative viability ([1]; first compound 6.325 µM)	relative viability ([1]; first compound 20 µM)	relative viability (AZD5582 + Phenformin; first compound 0.001581 µM)	relative viability (AZD5582 + Phenformin; first compound 0.005 µM)	relative viability (AZD5582 + Phenformin; first compound 0.01581 µM)	relative viability (AZD5582 + Phenformin; first compound 0.05 µM)
NCI-H1755	1.11	1.05	0.966	0.979	0.98	0.523	0.652	0.599	0.587	0.961	0.952	1.01	0.897	0.84	0.578	0.666	0.502	0.576
NCI-H1915	0.995	0.935	0.876	0.693	0.376	0.379	0.452	0.447	0.42	0.972	0.96	0.933	0.729	0.354	0.358	0.361	0.342	0.367
NCI-H1975	1.02	0.946	1.1	0.846	0.987	0.643	0.858	0.742	0.809	0.462	0.418	0.384	0.413	0.298	0.416	0.457	0.393	0.452
NCI-H1993	0.879	0.854	0.768	0.865	0.925	0.599	0.681	0.547	0.567	0.944	1.19	1.14	1.07	0.736	0.535	0.464	0.483	0.532
NCI-H2009	1.12	0.739	0.973	0.911	1.01	0.715	0.774	0.761	0.788	1.19	1	1.19	0.961	1.04	0.445	0.534	0.454	0.451
NCI-H2023	0.894	0.67	0.86	0.773	0.868	0.209	0.345	0.499	0.305	1.01	0.905	1.05	0.933	0.855	0.387	0.409	0.348	0.408
NCI-H2085	0.75	0.751	0.75	0.779	0.778	0.716	0.708	0.798	0.606	0.992	1.26	1.04	1.01	0.888	0.562	0.623	0.561	0.542
NCI-H2087	1.07	0.992	0.902	1.09	0.983	0.23	0.218	0.319	0.289	0.973	0.918	0.738	0.681	0.948	0.423	0.49	0.443	0.464
NCI-H2126	0.82	0.771	0.793	0.771	0.797	0.779	0.698	0.806	0.573	1.13	1.15	1.1	1.1	1.08	0.489	0.567	0.497	0.512
NCI-H2228	1.15	1.04	1.3	0.959	1.18	0.191	0.27	0.333	0.161	1.15	1.03	1.02	0.956	1.02	0.335	0.296	0.321	0.0886
NCI-H2347	1.18	1.01	0.93	0.781	0.908	0.561	0.523	0.5	0.553	1.34	1.05	0.995	0.836	1.07	0.356	0.352	0.38	0.239
NCI-H2405	1.12	1.08	1.21	0.921	1.05	0.74	0.813	0.708	0.85	1.07	0.976	1.01	0.715	0.954	0.375	0.469	0.327	0.473
NCI-H3122	1.01	1.03	1.09	0.968	1.04	0.157	0.178	0.477	0.121	1.01	1.1	1.04	0.937	1.04	0.362	0.376	0.354	0.19
PC-3 [JPC-3]	0.504	0.466	0.511	0.461	0.437	0.775	0.909	0.804	0.42	0.844	0.781	0.874	0.791	0.418	0.465	0.441	0.47	0.381
PC-14	0.318	0.321	0.396	0.343	0.297	0.521	0.595	0.558	0.6	0.94	0.872	0.943	0.83	1.04	0.556	0.5	0.353	0.511
RERF-LC-KJ	0.819	0.922	0.909	0.767	0.846	–	–	0.431	0.259	1.13	1.3	1.17	1.09	1.08	–	–	0.35	0.197
SK-LU-1	1.08	0.906	0.803	0.377	0.407	0.229	0.205	0.343	0.13	1.33	1.3	1.22	0.53	0.417	0.362	0.342	0.508	0.279
